In US20240271096A1, “EFFICIENT DIFFERENTIATION OF SECOND HEART FIELD CARDIAC PROGENITOR CELLS AND RIGHT VENTRICLE CARDIOMYOCYTES FROM HUMAN PLURIPOTENT STEM CELLS” (Wisconsin Alumni Research Foundation, priority 2023, published 2024):

Legend:
Format in all cases: cell-based, human
hiPSC-derived cells = assay: Flow cytometry of cardiac troponin T (cTnT); details: 1 μmol/L on day 0; day 12; n=4; mean±SD; control 82.1±2.6%, p=0.04
Protocol: (§1) For LV-cardiomyocyte differentiation, cardiac differentiation was performed according to the protocol published by (Lian et al., 2012, Proc Natl Acad Sci USA 109:[…]-57). Cells were dissociated with StemPro Accutase Cell Dissociation Reagent at 37° C. for 5 minutes. HESCs were seeded on Matrigel-coated 24-well plates (Corning) in StemFlex Medium supplemented with 10 μmol/[…] were seeded on iMatrix-511-coated 12-well plates (Corning) in StemFit A[…] supplemented with 10 μmol/[…] at seeding densities of 1×10^5 cells/cm^2 for hESCs and 1.25-2.5×10^4 cells/cm^2 for hiPSCs. Cells were cultured for 4 days until the start of differentiation (day 0). On day 0, the medium was changed to RPMI 1640 Medium (Thermo Fisher Scientific) supplemented with B-27 Supplement minus insulin (Thermo Fisher Scientific) (RPMI/B27-insulin) or B-27 Supplement with insulin (Thermo Fisher Scientific), and 12 μmol/L CHIR 99021 (SelleckChem, Houston, TX, United States), and the cells incubated in this medium for 24 h (day 1). On day 1, the medium was changed to RPMI/B27-insulin. […] On day 3, the medium was changed to RPMI/B27-insulin supplemented with 5 μmol/L IWP2 (SelleckChem) and on day 5, the medium was changed to 1 ml RPMI/B27-insulin. […] The cells were resuspended in 0.5% bovine serum albumin (Merck)/PBS and analyzed with an Attune NxT Flow Cytometer (Thermo Fisher Scientific).

hPSC-CMs = assay: Quantitative PCR of purified hiPSC-derived cardiomyocytes; details: DMH1-treated cell-derived cardiomyocytes at day 34
Protocol: as §1, with “PowerUpTM SYBR Green Master Mix (Thermo Fisher Scientific) and QuantStudio 1 (Thermo Fisher Scientific) were used for quantitative PCR (q-PCR), wherein q-PCR data were processed using” for “On day 3,”, “ΔΔCT method.” for “medium was changed to RPMI/B27-insulin supplemented with 5 μmol/L IWP2 (SelleckChem) and on day 5, the medium was changed to 1 ml RPMI/B27-insulin.”, “Data” for “The cells”, “were” for “were resuspended in 0.5% bovine serum albumin (Merck)/PBS and”, “the web-based tool of GeneGlobe Data Analysis Center (Qiagen).” for “an Attune NxT Flow Cytometer (Thermo Fisher Scientific).”

reporterless hiPSC line = assay: Immunostaining of marker proteins in hiPSC-derived cardiac progenitor cells and cardiomyocytes
Protocol: For LV-cardiomyocyte differentiation, cardiac differentiation was performed according to the protocol published by (Lian et al., 2012, Proc Natl Acad Sci USA 109:[…]-57). Cells were dissociated with StemPro Accutase Cell Dissociation Reagent at 37° C. for 5 minutes. HESCs were seeded on Matrigel-coated 24-well plates (Corning) in StemFlex Medium supplemented with 10 μmol/[…] were seeded on iMatrix-511-coated 12-well plates (Corning) in StemFit A[…] supplemented with 10 μmol/[…] at seeding densities of 1×10^5 cells/cm^2 for hESCs and 1.25-2.5×10^4 cells/cm^2 for hiPSCs. Cells were cultured for 4 days until the start of differentiation (day 0). On day 0, the medium was changed to RPMI 1640 Medium (Thermo Fisher Scientific) supplemented with B-27 Supplement minus insulin (Thermo Fisher Scientific) (RPMI/B27-insulin) or B-27 Supplement with insulin (Thermo Fisher Scientific), and 12 μmol/L CHIR 99021 (SelleckChem, Houston, TX, United States), and the cells incubated in this medium for 24 h (day 1). On day 1, the medium was changed to RPMI/B27-insulin. […] On day 3, the medium was changed to RPMI/B27-insulin supplemented with 5 μmol/L IWP2 (SelleckChem) and on day 5, the medium was changed to 1 ml RPMI/B27-insulin. From day 7, the cells were cultured with RPMI/B27-insulin, and the cells were fed every other day. On day 12, the cells were washed with PBS (Thermo Fisher Scientific) and cultured with DMEM or RPMI, no glucose supplemented with 8 mmol/L L-(+)-Lactic acid (Merck) (Tohyama et al., 2013 Cell Stem Cell, 12:127-37). The medium was changed every other day until day 17. After day 17, the cells were cultured with RPMI/B27 and fed every 2 to 3 days. For long-term culture, the cells were dissociated with TrypLETM Select Enzyme (10×) (Thermo Fisher Scientific) at 37° C. for 15-20 minutes and seeded on Matrigel- or iMatrix-511-coated plates. […] For FIG. 15A and FIG. 15B, dorsomorphin (DM) or 3 μg/L insulin were added on day 0 (for 24 hours), 1, 3, or 5 (for 48 hours). Cells were plated on iMatrix-511-coated plates and fixed in 4% paraformaldehyde (Nacalai, Kyoto, Japan) for 15 minutes. Cells were permeabilized with 0.1% Triton X-100 (Sigma-Aldrich, St. Louis, MO, United States)/PBS and blocked with 10% goat serum (Sigma-Aldrich). Primary and secondary antibodies were diluted in 0.1% Triton X-100/PBS with 5% goat serum and stained with Hoechst 33342 (Thermo Fisher Scientific) at 1 μg/mL, mouse anti-cardiac troponin T monoclonal IgG1 (GTX28295, GeneTex, Irvine, CA, United States) diluted at 1:16000, mouse anti-α-actinin monoclonal IgG1 (A7811, Sigma-Aldrich) diluted at 1:1000, rabbit anti-MLC2v monoclonal IgG (ab92721, Abcam, Cambridge, United Kingdom) diluted at 1:500, rabbit anti-CXCR4 monoclonal IgG (ab181020, Abcam) diluted at 1:2000, rabbit anti-NKX2-5 monoclonal IgG (Cat #. […], Cell Signaling Technology, Danvers, MA, United States) diluted at 1:2500, mouse anti-Nav1.5 (Car #. ASC-013, Alomone Labs) diluted at 1:1000, rabbit anti-connexin 43 (Cat #. 83649, Cell Signaling Technology) diluted at 1:1000, and mouse anti-TBX5 monoclonal IgG2a (Cat #. sc-515536, Santa Cruz Biotechnology, Dallas, TX, United States) diluted at 1:500. These cells were then incubated with a secondary antibody, goat anti-mouse or rabbit polyclonal IgG conjugated with iFluor 488 or 555 (AAT Bioquest, Sunnyvale, CA, United States) diluted at 1:1000, for 1 hour at room temperature. The cells were then observed with IX71 (Olympus, Tokyo, Japan) or EVOS FL Auto (Thermo Fisher Scientific) and images processed with ImageJ ([…] al., 2012, Nat Methods, 9:671-5).

SMILES	percentages of cTnT-positive cells (hiPSC-derived cells)	expression of TGFB1, COL1A1, COL1A2, COL3A1, and COL5A1 (qPCR) (hPSC-CMs)	CXCR4 expression (immunostaining) (reporterless hiPSC line; 0.5 μmol/L on day 0, day 7)	MLC2v, ventricular marker protein (immunostaining) (reporterless hiPSC line; 0.5 μmol/L on day 0, day 35)	NKX2-5-positive/cTnT-positive cardiomyocytes (reporterless hiPSC line; DMH1 on differentiation day 0, day 10)	TBX5 expression (immunostaining) (reporterless hiPSC line; DMH1 on differentiation day 0, day 10, dose-dependent)	immunostaining signal of Nav1.5 and Connexin 43 (reporterless hiPSC line; cardiomyocytes day 34, vs control)
c1cc(-c2cnn3cc(-c4ccc(OCCN5CCCCC5)cc4)cnc23)ccn1 [dorsomorphin]	70.4±7.3%						
CC(C)Oc1ccc(-c2cnc3c(-c4ccnc5ccccc45)cnn3c2)cc1 [DMH1, dorsomorphin homologue 1, reference compound]		reduced	upregulated	expressed	induced	reduced	reduction
